Molecular target: T1, membrane-associated human IR-A (Homo sapiens, UniProt P06213)
T1 construct: expressed in transfected cells; host or cells: BHK cells, pZem219B vector, plasma membrane preparation
Test: Insulin receptor affinity on membrane associated receptors (SPA), IR-A
Assay type: binding
Conditions: relative to human insulin
Protocol: Membrane-associated human IR and IGF-1R are purified from BHK cells stably transfected with the pZem219B vector containing either the human IR-A, IR-B or IGF-IR insert. BHK cells are harvested and homogenized in ice-cold buffer (25 mM HEPES pH 7.4, 25 mM CaCl2 and 1 mM MgCl2, 250 mg/L bacitracin, 0.1 mM Pefablock). The homogenates are layered on a 41% (w/v) sucrose cushion and centrifuged for 75 minutes at 95000 g at 4° C. The plasma membranes are collected, diluted 1:5 with buffer (as above) and centrifuged again for 45 minutes at 40000 g at 4° C. The pellets are resuspended in a minimal volume of buffer and drawn through a needle (size 23) three times before storage at −80° C. until usage. The relative binding affinity for either of the membrane-associated human IR-A, IR-B or IGF-1R is determined by competition binding in a SPA setup. IR assays are performed in duplicate in 96-well OptiPlates (Perkin-Elmer Life Sciences). Membrane protein is incubated with gentle agitation for 150 minutes at 25° C. with 50 pM [^125IA14Y]-human insulin in a total volume of […] assay buffer (50 mM HEPES, 150 mM NaCl, 5 mM MgSO4, 0.01% Triton X-100, 0.1% (w/v) HSA (Sigma A1887), Complete EDTA-free protease inhibitors), 50 μg of wheat germ agglutinate (WGA)-coated PVT microspheres (GE Healthcare) and increasing concentrations of ligand. Assays are terminated by centrifugation of the plate at 2000 rpm for 2 minutes and bound radioactivity quantified by counting on a TopCount NXT (Perkin-Elmer Life Sciences).
IGF-1R assays are conducted essentially as for the IR binding assays except that membrane-associated IGF-1R and 50 pM [^125I-Tyr31]-human IGF-1 were employed.

T1 sequence (P06213 28-1370 isoform P06213-2 limits assumed): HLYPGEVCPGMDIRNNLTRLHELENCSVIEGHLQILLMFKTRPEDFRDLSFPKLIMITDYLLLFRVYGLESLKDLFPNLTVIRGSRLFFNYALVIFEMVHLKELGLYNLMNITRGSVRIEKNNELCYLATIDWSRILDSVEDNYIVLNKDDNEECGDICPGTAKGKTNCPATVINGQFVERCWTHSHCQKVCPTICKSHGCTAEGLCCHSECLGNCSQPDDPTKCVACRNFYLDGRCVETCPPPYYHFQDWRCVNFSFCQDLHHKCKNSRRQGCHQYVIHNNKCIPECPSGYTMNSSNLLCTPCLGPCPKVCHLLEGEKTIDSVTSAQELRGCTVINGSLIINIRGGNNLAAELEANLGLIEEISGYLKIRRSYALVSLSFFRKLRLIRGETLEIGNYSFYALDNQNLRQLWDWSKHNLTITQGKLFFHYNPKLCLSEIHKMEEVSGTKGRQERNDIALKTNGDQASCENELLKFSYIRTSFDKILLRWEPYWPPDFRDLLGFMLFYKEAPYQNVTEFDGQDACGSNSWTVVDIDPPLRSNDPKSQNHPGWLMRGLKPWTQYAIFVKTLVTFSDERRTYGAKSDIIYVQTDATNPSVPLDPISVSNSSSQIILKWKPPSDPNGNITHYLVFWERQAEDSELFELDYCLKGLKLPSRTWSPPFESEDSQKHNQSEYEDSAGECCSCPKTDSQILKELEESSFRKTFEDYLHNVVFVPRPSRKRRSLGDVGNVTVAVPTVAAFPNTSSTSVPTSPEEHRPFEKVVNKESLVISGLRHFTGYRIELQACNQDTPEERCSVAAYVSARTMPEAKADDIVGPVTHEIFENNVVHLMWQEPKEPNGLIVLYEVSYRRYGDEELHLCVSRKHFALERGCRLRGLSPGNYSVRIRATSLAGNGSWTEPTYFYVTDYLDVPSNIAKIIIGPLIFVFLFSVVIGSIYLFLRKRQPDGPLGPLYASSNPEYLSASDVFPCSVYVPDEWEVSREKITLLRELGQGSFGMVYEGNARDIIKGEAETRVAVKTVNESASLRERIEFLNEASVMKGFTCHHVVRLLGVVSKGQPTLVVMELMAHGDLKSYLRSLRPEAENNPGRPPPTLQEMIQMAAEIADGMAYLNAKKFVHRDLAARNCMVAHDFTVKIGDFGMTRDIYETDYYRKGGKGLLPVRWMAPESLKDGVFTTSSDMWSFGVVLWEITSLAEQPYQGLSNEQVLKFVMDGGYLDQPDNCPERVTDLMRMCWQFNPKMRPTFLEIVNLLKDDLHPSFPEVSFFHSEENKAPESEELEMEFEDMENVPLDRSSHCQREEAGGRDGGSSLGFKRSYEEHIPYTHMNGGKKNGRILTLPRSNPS
T1 sequence (P06213 763-1382 partner limits assumed): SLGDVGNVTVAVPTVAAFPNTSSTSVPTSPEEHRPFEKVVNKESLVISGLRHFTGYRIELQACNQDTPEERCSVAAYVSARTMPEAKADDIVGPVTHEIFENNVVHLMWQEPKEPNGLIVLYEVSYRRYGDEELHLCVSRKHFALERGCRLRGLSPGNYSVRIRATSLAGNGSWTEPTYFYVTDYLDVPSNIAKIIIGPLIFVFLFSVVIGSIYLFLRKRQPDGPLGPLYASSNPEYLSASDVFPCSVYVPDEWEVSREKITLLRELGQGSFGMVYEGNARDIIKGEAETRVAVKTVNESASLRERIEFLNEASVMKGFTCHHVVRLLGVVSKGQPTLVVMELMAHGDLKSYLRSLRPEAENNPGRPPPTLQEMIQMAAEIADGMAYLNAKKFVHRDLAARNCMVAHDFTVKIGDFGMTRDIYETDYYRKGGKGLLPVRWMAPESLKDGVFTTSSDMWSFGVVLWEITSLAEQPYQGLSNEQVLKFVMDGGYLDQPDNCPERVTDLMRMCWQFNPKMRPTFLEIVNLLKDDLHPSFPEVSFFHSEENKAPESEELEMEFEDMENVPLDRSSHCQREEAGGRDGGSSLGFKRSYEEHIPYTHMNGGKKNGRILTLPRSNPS

| Substance | hIR-A mem Rel. aff. (%) |
| --- | --- |
| (A14E, A21G, A22(GQEP)12, A70K^, A71P, B25H, B29R, desB30 human insulin)/(226A, 227G, 228P, 234A, 235K, 297E, 315Q, 384Q, des447 hIgG4-Fc(226-447))3,5-bis[(2-acetyl)amino]benzoyl Conjugate [Example 5.1] | 2.97% |
| (A14E, A21G, A22(GQEP)11, A66G, A67Q, A68E, A69K^, A70P, B16H, B25H, B29R, desB30 human insulin)/(226A, 227G, 228P, 234A, 235K, 297E, 315Q, 384Q, des447 hIgG4-Fc(226-447))3,5-bis[(2-acetyl)amino]benzoyl Conjugate [Example 5.2] | 1.27% |
